Assay results from patent publication US10995068B2, “Synthetic sphingolipid-like molecules, drugs, methods of their synthesis and methods of treatment” (The Regents of the University of California, priority 2015, dated 2021).
Where “and” joins values, the source holds several entries; their conditions need not be identical. Equal values may be shown once. Read-outs that look alike come from different tables or passages of the source.

Assays:
[1] = system: murine hematopoietic cell line FL5.12; assay: Viability of FL5.12 cells by vital dye exclusion; format: cell-based; settings: for IC50: FL5.12 cells, 48 h, vital dye exclusion, n ≥3, read-out: IC50 (μM) [95% CI]
Method: (§1) Cell culture studies: FL5.12 cells (murine hematopoetic cells originally obtained from Craig Thompson, Memorial Sloan Kettering Cancer Center) were maintained at 0.1-0.5 million/ml in RPMI 1640 (Mediatech) supplemented with 10% fetal calf serum (FCS, Sigma-Aldrich), 10 mM Hepes (Mediatech), 500 pg/ml recombinant IL-3 (cat #575502, Biolegend), 55 μM β-mercaptoethanol (Sigma-Aldrich), 2 mM L-glutamine (Mediatech), and antibiotics. Cells were screened for Mycoplasma every 3 months using the Look-Out Mycoplasma PCR Detection kit (cat #MP0035, Sigma).
IC50 values were calculated using GraphPad Prism (GraphPad Software, Inc, La Jolla, Calif.).

CD98 (4F2hc, SLC3A2) = assay: Surface CD98 nutrient transporter down-regulation by flow cytometry; format: cell-based, murine; settings: FL5.12 cells; for % CD98 down-regulation: surface CD98 at 3 h, flow cytometry, mean ± SEM, n ≥3
Source text: (§2) In an exemplified study, nutrient transporter down-regulation was monitored by quantifying surface levels of the amino acid transporter-associated protein, CD98, by flow cytometry. Vacuolation was scored in a range from 0 to […], as determined by a vacuolation assay described in greater detail in the Materials and Methods section below.
as §1
Nutrient transporter expression: Surface CD98 (4F2hc, SLC3A2) expression was measured at 3 h using phycoerythrin (PE)-conjugated rat anti-mouse CD98 antibody (Biolegend, cat #128208); analysis was restricted to viable cells. PE conjugated Rat IgG2a, k (cat #400508, Biolegend) was used as an isotype control. For staining, 200,000 cells were pelleted, re-suspended in 100 μl FACS block (PBS with 10% FCS and 0.05% NaN3) containing 0.25 μL anti-CD98 antibody, incubated on ice for 30 min, washed twice with 1 ml FACS wash (PBS containing 2% FCS and 0.05% NaN3), and analyzed on a BD LSR II flow cytometer. Data was processed with FlowJo software (Treestar).

FL5.12 cells = assay: Vacuolation assay; format: cell-based, murine; set-up: key to Vacuolation score: 0-100 score: (3×%cat3+2×%cat2+1×%cat1)/3; cells graded 0-3 for vacuoles; settings: for Vacuolation score / vacuolation (in words): FL5.12 cells; for Vacuolation score: 3 h in 2.5 μM compound except where otherwise indicated, mean ± SEM, n ≥3; for ability to induce vacuole formation: highest concentrations tested (30 μM); for vacuolation (in words): at any dose / highest dose tested
Method: as §2
Vacuolation assay: Cells were evaluated at 100× using brightfield microscopy and a Nikon TE2000-S fluorescence microscope equipped with DIC filters. Vacuolation was quantified after a 3 h incubation period in 2.5 μM compound except where otherwise indicated. To calculate a vacuolation score, vacuolation severity in at least 15 individual cells/experiment was assessed qualitatively. Scores were assigned to individual cells as follows: 0=no vacuoles, 1=very small vacuoles, 2=multiple well-defined vacuoles, 3=multiple large vacuoles. To calculate the vacuolation score associated with a compound, the following formula was used: vacuolation score=[(3×% cells in category 3)+(2×% cells in category 2)+(1×% cells in category 1)]/3.
The score is divided by 3 so that a compound with 100% of its cells in category 3 would have a vacuolation score of 100. Three independent experiments were conducted and the vacuolation scores averaged to generate a mean+/−SEM. All cells were scored by one lab member after confirming that a blinded individual scored 5 compounds with similar results.

[2] = system: DU145 prostate cancer cells; assay: Cell Titer Glo proliferation assay in DU145; format: cell-based, human; settings: Mean ± SEM, n ≥ 3, read-out: IC50 values in prostate cancer cell lines, DU145
Method: (§3) Previously presented compounds 1-4 (FIG. 23), compounds 5-8 (FIG. 28), and control compound FTY720 (FIG. 2) were used to treat the well-established PC3 and DU145 prostate cancer lines (FIG. 29 and Table 1). A Cell Titer Glo assay was performed to measure proliferation of the cancer lines.
(§4) Cell culture studies: Sup-B15 cells are maintained at 2-3 million/mL in RPMI 1640 (Mediatech) supplemented with 10% fetal calf serum (FCS, Sigma-Aldrich), 10 mM Hepes (Mediatech), 55 μM β-mercaptoethanol (Sigma-Aldrich), 2 mM L-glutamine (Mediatech), and antibiotics. All adherent cells are maintained at 70-80% confluence. Cell are cultured in the following media: PC3 & A549, Ham's F12K (Corning Cell Gro) supplemented with 10% FCS and antibiotics; DU145 cells, MEM (Corning Cell Gro) supplemented with 10% FCS, 1 mM sodium pyruvate (Mediatech), and antibiotics; SW620 & MDA-MB-231, DMEM (Corning Cell Gro) with 10% FCS, 1 mM sodium pyruvate (Mediatech), and antibiotics; Panc-1 cells, DMEM (Corning Cell Gro) supplemented with 10% FCS and antibiotics. All of the above cell lines are available from the ATCC.
(§5) Viability assays: Cell Titer Glo assays (Cell Titer Glo Luminescent Cell Viability Assay kit, cat #G7571, Promega Corporation) are performed in clear bottom 96-well black cell culture plates (cat #655090, Greiner Bio-One, NC, USA). After plating at 1,000 cells/well in volume of 100 μl, cells are left undisturbed for at least 24 h before drug addition. After 72 h, cells are prepared for analysis by adding 10 μl of 0.1% Triton-X100 in PBS with shaking for 1 min at room temperature (RT). Cell Titer-Glo cell lysis reagent (20 μl) is then added followed by 1 min of shaking and a 10 min incubation in the dark at RT. Luminescence is detected using an IVIS imaging system (IVIS Lumina II, Perkin Elmer, USA). […] IC50s are determined using GraphPad Prism (GraphPad Software, Inc, La Jolla, Calif.). SupB-15 viability was determined by flow cytometry. Cell Titer Glo assays were performed with the other cell lines.

[3] = system: PC3 prostate cancer cells; assay: Cell Titer Glo proliferation assay in PC3; format: cell-based, human; settings: Cell Titer Glo, 72 h, Mean ± SEM, n ≥ 3, read-out: IC50 values in prostate cancer cell lines, PC3
Method: as §3, §4, §5

Row | SMILES | IC50 [1] | % CD98 down-regulation (CD98 (4F2hc, SLC3A2)) | Vacuolation score (FL5.12 cells) | also measured
1 | CCCCCCCCCCc1ccc(COC2CNC(CO)C2)cc1 (stereo not drawn) [Compound 120] | 3.6 µM | 28 ± 1% | 36 ± 5 | 
2 | CCCCCCC=Cc1ccc(COC2CNC(CO)C2)cc1 (stereo not drawn) [Compound 113] | 1.4 µM | 64 ± 1% | 27 ± 1 | 
3 | CCCCCCCCc1ccc([C@@H]2CC(=O)N[C@@H]2CO)cc1 [Compound 11] |  |  |  | IC50 ([2]; 72 h): > 20 µM; IC50 [3]: > 20 µM
4 | CCCCCCC=Cc1ccc(COC2CC(CO)N(C)C2)cc1 (stereo not drawn) [Compound 130] | 1.9 µM | 31 ± 4% | 26 ± 2 | 
5 | CCCCCCCCc1ccc(C2CCNC2CO)cc1 (stereo not drawn) [Compound 7] |  |  |  | IC50 ([2]; 72 h): 5.3 ± 0.7 µM; IC50 [3]: 5.5 ± 0.7 µM
6 | CCCCCCCCCCCCCCc1ccc(COC2CNC(CO)C2)cc1 (stereo not drawn) [Compound 123] | 5.7 µM | 19 ± 1% | 3 ± 3 | 
7 | CCCCCCCCCCCCCCc1ccc(COC2CNC(CO)C2)cc1 (stereo not drawn) [Compound 116] | 10.5 µM | 12 ± 3% | 4 ± 2 | 
8 | CCCCCCCCc1ccc(COC2CNC(CO)C2)cc1 (stereo not drawn) [Compound 102] | 2 µM | 63 ± 3% | 33 ± 2 | 
9 | CCCCCCCCCCCCC/C=C/[C@@H](O)[C@@H](N)CO [Compound 106, sphingosine, reference compound] |  | 48 ± 2% | 57 ± 6 | IC50 ([1]; Mus musculus): 3.6 µM; concentration required to cause similar transporter loss (CD98 (4F2hc, SLC3A2); CD98 loss): 2.5 µM
10 | CCCCCCCCc1ccc(COC2CC(CO)N(C(=N)N)C2)cc1 (stereo not drawn) [Compound 132] | 14.2 µM | 35 ± 1% | 0 | ability to induce vacuole formation (FL5.12 cells): lost
11 | CCCCCCCCc1ccc([C@@H]2CCN[C@H]2CO)cc1 [Compound 105] | 1.7 µM | 47% and 47 ± 3% | 53 and 53 ± 3 | 
12 | CCCCCCCCc1ccc([C@H]2CC(=O)N[C@H]2CO)cc1 [Compound 10] |  |  |  | IC50 ([2]; 72 h): > 20 µM; IC50 [3]: > 20 µM
13 | CCCCCCCCCCCCc1ccc(COC2CNC(CO)C2)cc1 (stereo not drawn) [Compound 114] | 10.1 µM | 13 ± 3% | 3 ± 1 | 
14 | CCCCCCC=Cc1ccc(COC2CNC(CO)C2)cc1 (stereo not drawn) [Compound 119] | 2.4 µM | 41 ± 3% | 70 ± 1 | 
15 | CCCCCCC=Cc1ccc(C2CCNC2CO)cc1 (stereo not drawn) [Compound 125] | 1.7 µM | 58 ± 3% | 84 ± 2 | 
16 | CCCCCCC=Cc1ccc(C2CCN(C(C)=O)C2CO)cc1 (stereo not drawn) [Compound 135] | 46.2 µM | 40 ± 2% | 2 ± 2 | vacuolation (in words) (FL5.12 cells): failed to induce vacuolation

Row | SMILES | IC50 [1] | % CD98 down-regulation (CD98 (4F2hc, SLC3A2)) | Vacuolation score (FL5.12 cells) | also measured
17 | CCCCCCCCCCCCC/C=C/[C@@H](O)[C@H](CO)N(C)C [Compound 108, dimethylsphingosine, reference compound] | 0.77 µM and 0.8 µM | 69 ± 2% | 72 ± 3 | fold more potent than sphingosine (106) ([1]; IC50, FL5.12 cells): ~5 fold
18 | CCCCCCCCc1ccc(C2CCNC2CO)cc1 (stereo not drawn) [Compound 8] |  |  |  | IC50 ([2]; 72 h): 5.4 ± 0.3 µM; IC50 [3]: 6.5 ± 0.3 µM
19 | CCCCC=Cc1ccc(COC2CNC(CO)C2)cc1 (stereo not drawn) [Compound 112] | 5.5 µM | 30 ± 4% | 0 | 
20 | CCCCCCCCc1ccc([C@H]2C[C@H](CO)N[C@H]2CO)cc1 [Compound 1, (2R,3R,5R)-2,5-bis-hydroxymethyl-3-(4-octyl)phenyl pyrrolidine] |  |  |  | IC50 ([2]; 72 h): 7.3 ± 0.8 µM; IC50 [3]: 7 ± 0.3 µM
21 | CCCCCCCCc1ccc([C@H]2CCN(C(C)=O)[C@@H]2CO)cc1 [Compound 134] | 39.7 µM | 40 ± 4% | 0 | vacuolation (in words) (FL5.12 cells): failed to induce vacuolation
22 | CCCCCCCCc1ccc(COC2CNC(CO)C2)cc1 (stereo not drawn) [Compound 103] | 3 µM | 48 ± 2% | 47 ± 2 | 
23 | CCCCCCCCc1ccc(COC2CC(CO)N(C(=N)N)C2)cc1 (stereo not drawn) [Compound 133] | 17.3 µM | 34 ± 3% | 0 | ability to induce vacuole formation (FL5.12 cells): lost
24 | CCCCCCCCc1ccc([C@@H]2CC(=O)N[C@H]2CO)cc1 [Compound 9, (4S,5R)-5-(hydroxymethyl)-4-(4-octylphenyl)Pyrrolidin-2-one] |  |  |  | IC50 ([2]; Homo sapiens, DU-145, 72 h): > 20 µM; IC50 ([3]; Homo sapiens): > 20 µM
25 | CCCCCCCCc1ccc([C@@H]2C[C@@H](CO)N[C@@H]2CO)cc1 [Compound 2] |  |  |  | IC50 ([2]; 72 h): 5.7 ± 0.4 µM; IC50 [3]: 6.1 ± 1 µM
26 | CCCCCCCCc1ccc([C@H]2CCN[C@@H]2C)cc1 [Compound 13] |  |  |  | IC50 ([2]; 72 h): 5.1 ± 0.6 µM; IC50 [3]: 4.4 ± 0.6 µM
27 | CCCCC=Cc1ccc(COC2CNC(CO)C2)cc1 (stereo not drawn) [Compound 118] | 5.7 µM | 9 ± 3% | 5 ± 2 | 
28 | CCCCCCCCCCCCCCC[C@@H](O)[C@@H](N)CO [Compound 107, sphinganine, reference compound] |  | 47 ± 3% | 38 ± 6 | IC50 ([1]; Mus musculus): 3.5 µM
29 | CCCCCCc1ccc(COC2CNC(CO)C2)cc1 (stereo not drawn) [Compound 111] | 2.7 µM | 30 ± 2% | 0 | 
30 | CCCCCCCCCCCCc1ccc(COC2CNC(CO)C2)cc1 (stereo not drawn) [Compound 121] | 3.9 µM | 14 ± 4% | 30 ± 2 | 
31 | CCCCCCCCc1ccc(COC2CC(CO)N(C(C)=O)C2)cc1 (stereo not drawn) [Compound 131] | 29.7 µM | 37 ± 3% | 1 ± 1 | fold less potent than analog 102 ([1]; IC50, FL5.12 cells): 10 fold; vacuolation (in words) (FL5.12 cells): no vacuolation activity
